According to publication PMC9785606, “Design and Synthesis of Novel Phenylahistin Derivatives Based on Co-Crystal Structures as Potent Microtubule Inhibitors for Anti-Cancer Therapy” (Marine Drugs, 2022):
Marks after values point to notes of the source that are not given here.

Test system: H22 hepatoma carcinoma cells transplanted tumor
Test: H22 subcutaneous transplanted tumor model, intravenous administration
Details: for Tumor Volume (D15): 14 consecutive days; for Tumor Volume (D1): D1 (baseline), mean ± SD; for Tumor Weight: excised at end of administration; for IR (tumor weight inhibition rate): IR = (1 − TWt/TWc) × 100%
Method: The anticancer effect of the compound 15p was further evaluated against H22 tumor-bearing mice models by intravenous injection at doses of 2 mg/kg, or 4 mg/kg, two or three times a week, and for 14 consecutive days. Docetaxel (10 mg/kg), plinabulin (4 mg/kg), and cyclophosphamide (20 mg/kg) were used as the positive controls.
Balb/c mice (4–6 weeks old, 16–18 g) were purchased from Shanghai Sippr-BK laboratory animal Co. Ltd. The animal study protocol was approved by Institutional Review Board of Science and Technology Division of Linyi University (review opinion on behalf of the Ethics Committee) (The protocol code is LYU20220107, provided on 10 March 2022). H22 cells were grown in RPMI-1640 midium supplemented with 10% fetal bovine serum, and maintained at 37 °C in humidified 5% CO2. Cells were passaged when they reached 70–80% confluence. Viable H22 cells (1 × 10^7 cells/0.2 ml 0.9% sodium chloride) were injected into the peritoneal cavity of BALB/C mice to trigger ascitic cell growth. Later, cells were harvested and suspended. H22 cancer cells (2 × 10^7 cells/0.1 ml 0.9% sodium chloride cells) were subcutaneously injected into the right flank of each mouse. After implantation, the tumor size was measured with an electronic caliper twice a week, and the tumor volume was calculated according to the following formula: tumor volume (mm^3) = 0.5 × length × width^2. When the tumor volume reached about 130 mm^3, the xenograft tumor-bearing BALB/C mice were randomly placed into six groups at 10 mice per group: vehicle, plinabulin (4 mg/kg), 15p ([…]), 15p ([…]), cyclophosphamide (20 mg/kg) and docetaxel (10 mg/kg) groups. Docetaxel, plinabulin, and cyclophosphamide were chosen as positive control drug. The reference compound docetaxel and cyclophosphamide were completely dissolved in isotonic saline. […] The solution of compound 15p was diluted with the concentrated solution and in isotonic saline at a calculated ratio. The solutions of plinabulin were made up according to similar methods. The mice received intravenous administration (iv) every two or three days for consecutive 14 days. The tumor volumes and the body weights were recorded every two or three days after treatment. At the end of the administration period, the animals were euthanized by dislocation, and the tumor bulks were peeled off conforming to the Guide for the Animal use and Management of Shanghai Medicilon Biological Medicine Co. Ltd. The tumor volume was calculated according to the Principles of Non-clinical Research Techniques for Anti-tumor Drugs of Cytotoxic Drugs by China Food and Drug Administration.

[1] = 2 mg/kg iv, listed as Compound 15p
[2] = 4 mg/kg iv, listed as Compound 15p

In the case of C=CCn1cnc(/C=c2\[nH]c(=O)/c(=C/c3cccc(C(=O)c4ccc(F)cc4)c3)[nH]c2=O)c1C(C)C [15p], the “Tumor Volume (D15)” value (2 mg/kg iv) is reported as 1453.6 mm^3, the “Tumor Volume (D15)” value [1] is reported as 1453.6 ± 909.5 mm^3 and the “Tumor Volume (D1)” value (2 mg/kg iv) is reported as 103.7 ± 29.99 mm^3. For the same compound, the “Tumor Weight” value (2 mg/kg iv) was 0.82 g, the “Tumor Weight” value [1] was 0.82 ± 0.47 g and the “IR (tumor weight inhibition rate)” value (2 mg/kg iv) was 27.6%. For the same compound, the “Tumor Volume (D15)” value (4 mg/kg iv) was 674.5 mm^3, the “Tumor Volume (D15)” value [2] was 674.5 ± 274.0* mm^3 and the “Tumor Volume (D1)” value (4 mg/kg iv) was 102.2 ± 28.62 mm^3. For the same compound, the “Tumor Weight” value (4 mg/kg iv) was 0.39 g, the “Tumor Weight” value [2] was 0.39 ± 0.22 g and the “IR (tumor weight inhibition rate)” value (4 mg/kg iv) was 65%. The “IR (tumor weight inhibition rate)” value [2] was 65.2%.
